Our source for the IC50, EC50 and AC50 values is ChEMBL document CHEMBL1201862, “PubChem BioAssay data set” (2004).

Active and inactive are the calls of the source.

Data set [1] deals with T1, Fructose-bisphosphate aldolase (Mycobacterium tuberculosis, UniProt P9WQA3).
T1 sequence (P9WQA3 whole entry): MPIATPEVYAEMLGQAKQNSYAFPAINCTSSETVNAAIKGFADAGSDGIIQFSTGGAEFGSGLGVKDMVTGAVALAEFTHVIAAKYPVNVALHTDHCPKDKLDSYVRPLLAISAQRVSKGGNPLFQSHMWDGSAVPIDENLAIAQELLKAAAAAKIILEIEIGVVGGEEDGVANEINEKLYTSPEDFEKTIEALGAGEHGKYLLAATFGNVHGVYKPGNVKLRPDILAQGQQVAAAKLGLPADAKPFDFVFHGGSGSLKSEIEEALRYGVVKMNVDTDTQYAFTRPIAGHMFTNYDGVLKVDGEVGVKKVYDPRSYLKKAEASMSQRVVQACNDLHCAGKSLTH
The data set is described as follows: Fluorescence-based biochemical high throughput dose response assay for inhibitors of the fructose-bisphosphate aldolase (FBA) of M. tuberculosis. It counts as functional.

Data set [2] concerns the target T2, Short transient receptor potential channel 4 (Mus musculus, UniProt Q9QUQ5).
T2 sequence (Q9QUQ5 whole entry): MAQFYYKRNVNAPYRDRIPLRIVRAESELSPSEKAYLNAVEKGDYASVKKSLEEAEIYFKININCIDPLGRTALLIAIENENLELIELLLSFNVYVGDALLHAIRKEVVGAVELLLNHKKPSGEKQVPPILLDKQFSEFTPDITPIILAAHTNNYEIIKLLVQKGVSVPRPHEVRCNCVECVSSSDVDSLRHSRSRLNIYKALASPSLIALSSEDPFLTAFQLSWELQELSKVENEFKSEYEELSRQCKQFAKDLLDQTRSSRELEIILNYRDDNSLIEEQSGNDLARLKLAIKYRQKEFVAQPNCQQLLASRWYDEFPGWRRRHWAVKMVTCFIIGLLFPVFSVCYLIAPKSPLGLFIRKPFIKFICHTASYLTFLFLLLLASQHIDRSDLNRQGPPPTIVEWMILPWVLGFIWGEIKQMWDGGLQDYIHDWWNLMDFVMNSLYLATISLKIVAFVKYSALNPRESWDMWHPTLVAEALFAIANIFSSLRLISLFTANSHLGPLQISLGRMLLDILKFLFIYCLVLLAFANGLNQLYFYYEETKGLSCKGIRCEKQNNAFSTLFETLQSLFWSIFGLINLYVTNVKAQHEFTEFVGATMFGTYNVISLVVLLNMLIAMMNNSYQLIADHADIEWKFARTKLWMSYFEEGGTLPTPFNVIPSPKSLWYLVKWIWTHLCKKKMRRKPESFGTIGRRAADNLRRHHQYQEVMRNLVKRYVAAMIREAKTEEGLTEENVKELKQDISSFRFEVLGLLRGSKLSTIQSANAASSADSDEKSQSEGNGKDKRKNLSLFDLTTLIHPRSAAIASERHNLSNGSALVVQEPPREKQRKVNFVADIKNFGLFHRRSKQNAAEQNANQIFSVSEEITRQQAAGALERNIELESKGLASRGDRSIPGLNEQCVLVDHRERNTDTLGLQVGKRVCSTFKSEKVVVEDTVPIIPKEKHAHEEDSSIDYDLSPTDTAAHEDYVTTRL
Nature of the data set: block of DAMGO-driven TRPC4 calcium entry – cell-based, HEK293 TRPC4/mu-opioid, Fluo-4 calcium, dose response (AID 434942).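 Note: potency of inhibitors blocking the TRPC4 calcium response.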 It counts as functional.

The next data set concerns H4. The data set is described as follows: Luminescence Cell-Based Dose Response HTS to Identify Activators of 5'UTR Stem-Loop Driven Prion Protein mRNA Translation in H4 Neuroglioblastoma Cells. [Related pubchem assays: 1829 (Project Summary), 1814 (Primary HTS)]. Type of data set: functional. The settings on record: Homo sapiens.
In data set [3] the target is T3, Nuclear receptor subfamily 0 group B member 1 (Homo sapiens, UniProt P51843).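 Note: HEK293T cells transfected with SF-1 and DAX-1 plus StAR promoter luciferase reporter.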
T3 sequence (P51843 whole entry): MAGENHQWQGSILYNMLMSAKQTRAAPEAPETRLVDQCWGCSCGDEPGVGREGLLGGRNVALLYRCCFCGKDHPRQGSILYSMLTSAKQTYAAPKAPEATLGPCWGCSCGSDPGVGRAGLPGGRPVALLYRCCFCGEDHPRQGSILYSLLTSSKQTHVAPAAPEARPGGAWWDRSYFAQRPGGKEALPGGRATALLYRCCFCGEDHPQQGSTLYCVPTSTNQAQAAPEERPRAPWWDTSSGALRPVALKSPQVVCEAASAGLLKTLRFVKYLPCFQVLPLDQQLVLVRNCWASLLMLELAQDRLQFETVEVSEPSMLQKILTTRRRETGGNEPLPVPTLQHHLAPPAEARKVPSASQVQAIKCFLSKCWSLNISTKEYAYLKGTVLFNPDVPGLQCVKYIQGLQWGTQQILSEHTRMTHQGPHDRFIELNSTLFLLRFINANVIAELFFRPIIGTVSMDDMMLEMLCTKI
It counts as functional, cell-based.

A short description of data set [4]: Luminescence Cell-Based Dose Response HTS to Identify Activators of Luciferase Translation or Activity in H4 […] Cells. [Related pubchem assays: 1829 (Project Summary), 1814 (Primary HTS)]. Type of data set: functional.
A further data set can be described thus: cells. It counts as functional, cell-based.
Data set [5] in a line: Luminescence Cell-Based Dose Confirmation HTS to Identify Activators of 5'UTR Stem-Loop Driven Alpha-Synuclein mRNA Translation in H4 Neuroglioblastoma Cells. [Related pubchem assays: 1829 (Project Summary), 1814 (Primary HTS)]. It counts as functional.
The target in the next data set is Cytochrome P450 3A4 (Homo sapiens, UniProt P08684).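 Note: CYP3A4 tested as one member of a cytochrome P450 panel screen.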
Another data set addresses T4, Cytochrome P450 1A2 (Homo sapiens, UniProt P05177).
T4 sequence (P05177 whole entry): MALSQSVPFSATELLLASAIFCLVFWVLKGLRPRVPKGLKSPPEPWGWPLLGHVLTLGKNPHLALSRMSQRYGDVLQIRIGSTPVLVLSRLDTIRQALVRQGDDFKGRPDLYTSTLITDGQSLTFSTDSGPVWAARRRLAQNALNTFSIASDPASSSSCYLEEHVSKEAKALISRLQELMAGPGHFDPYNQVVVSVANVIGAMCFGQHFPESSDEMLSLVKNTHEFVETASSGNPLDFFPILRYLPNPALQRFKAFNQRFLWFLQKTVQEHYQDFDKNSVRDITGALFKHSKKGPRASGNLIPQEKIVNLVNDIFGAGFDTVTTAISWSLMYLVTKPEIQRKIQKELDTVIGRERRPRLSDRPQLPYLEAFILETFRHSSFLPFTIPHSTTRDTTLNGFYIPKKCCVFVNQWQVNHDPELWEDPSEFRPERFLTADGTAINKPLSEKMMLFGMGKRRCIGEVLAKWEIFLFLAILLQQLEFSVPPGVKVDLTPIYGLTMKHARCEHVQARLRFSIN

Another data set concerns the target T5, Aminopeptidase N (Plasmodium falciparum FcB1/Columbia, UniProt O96935).
T5 sequence (O96935 whole entry): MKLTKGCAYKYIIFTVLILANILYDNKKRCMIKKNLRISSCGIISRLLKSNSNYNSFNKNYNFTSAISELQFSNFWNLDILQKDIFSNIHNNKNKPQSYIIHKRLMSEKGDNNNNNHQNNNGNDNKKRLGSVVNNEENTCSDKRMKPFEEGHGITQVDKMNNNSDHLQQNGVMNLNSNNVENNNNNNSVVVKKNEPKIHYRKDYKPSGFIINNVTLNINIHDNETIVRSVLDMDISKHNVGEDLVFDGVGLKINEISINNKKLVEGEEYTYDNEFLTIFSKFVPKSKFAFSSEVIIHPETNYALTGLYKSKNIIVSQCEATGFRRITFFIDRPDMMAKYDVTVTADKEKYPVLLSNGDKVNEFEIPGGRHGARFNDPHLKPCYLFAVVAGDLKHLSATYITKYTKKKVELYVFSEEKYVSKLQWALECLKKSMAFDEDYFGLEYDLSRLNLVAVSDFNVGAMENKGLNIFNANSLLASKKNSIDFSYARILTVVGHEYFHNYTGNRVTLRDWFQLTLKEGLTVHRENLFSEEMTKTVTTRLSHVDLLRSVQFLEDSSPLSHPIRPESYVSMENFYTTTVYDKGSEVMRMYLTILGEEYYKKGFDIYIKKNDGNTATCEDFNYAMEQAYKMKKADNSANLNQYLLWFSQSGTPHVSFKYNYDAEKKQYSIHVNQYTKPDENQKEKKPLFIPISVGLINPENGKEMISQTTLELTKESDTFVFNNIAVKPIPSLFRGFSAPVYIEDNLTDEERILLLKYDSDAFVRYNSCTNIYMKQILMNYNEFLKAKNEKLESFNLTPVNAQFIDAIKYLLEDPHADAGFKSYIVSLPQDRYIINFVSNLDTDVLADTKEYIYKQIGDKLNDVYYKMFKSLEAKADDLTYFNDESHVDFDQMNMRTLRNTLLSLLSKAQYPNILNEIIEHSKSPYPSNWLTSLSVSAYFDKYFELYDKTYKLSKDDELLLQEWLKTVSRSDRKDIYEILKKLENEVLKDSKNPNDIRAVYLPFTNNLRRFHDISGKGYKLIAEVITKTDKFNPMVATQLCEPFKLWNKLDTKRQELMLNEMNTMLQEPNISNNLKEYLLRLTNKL
The data set is described as follows: malaria alanyl aminopeptidase activity blockers – biochemical, fluorogenic H-Leu-NHMec substrate, 1536-well (AID 1445). The arrangement: species or system Plasmodium falciparum 3D7, 3D7.

Data set [6] deals with T6, Long-chain-fatty-acid--AMP ligase FadD28 (Mycobacterium tuberculosis, UniProt P9WQ59).
T6 sequence (P9WQ59 whole entry): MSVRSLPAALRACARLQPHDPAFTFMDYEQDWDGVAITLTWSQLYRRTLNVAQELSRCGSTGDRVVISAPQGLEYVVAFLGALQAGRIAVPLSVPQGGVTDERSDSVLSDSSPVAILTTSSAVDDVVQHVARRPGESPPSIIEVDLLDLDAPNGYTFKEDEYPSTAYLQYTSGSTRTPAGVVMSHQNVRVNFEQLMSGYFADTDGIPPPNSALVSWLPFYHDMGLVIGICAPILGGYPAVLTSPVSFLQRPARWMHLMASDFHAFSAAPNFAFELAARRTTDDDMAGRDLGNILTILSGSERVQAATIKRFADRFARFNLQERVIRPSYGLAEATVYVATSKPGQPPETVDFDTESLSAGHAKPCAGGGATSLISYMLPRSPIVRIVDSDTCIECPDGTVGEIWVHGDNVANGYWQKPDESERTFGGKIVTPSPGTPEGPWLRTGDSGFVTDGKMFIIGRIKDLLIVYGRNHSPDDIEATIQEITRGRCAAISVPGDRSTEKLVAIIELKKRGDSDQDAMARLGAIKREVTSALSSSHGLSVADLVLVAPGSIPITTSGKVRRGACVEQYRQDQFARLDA
The data set is described as follows: Fluorescence polarization aasay to screen for inhibitors that compete for the binding of FadD28 to a bisubstrate Measured in Biochemical System Using Plate Reader - 2147-01_Inhibitor_Dose_CherryPick_Activity. Type of data set: functional, Mycobacterium tuberculosis H37Rv. On the technique in general: Polarisation of emitted light reports the rotation of a fluorescent probe.

Data set [7] concerns Streptococcus sp. 'group A'. The data set is described as follows: Streptococcus pyogenes SK(-)GAS viability under kanamycin – luminescence, BacTiterGlo, confirmation, counter-screen for streptokinase expression inhibitor project, dose response (AID 1900). Type of data set: functional, organism-based. A general note: Counterscreens check selectivity or assay interference.
A further data set has as its target T7, Streptokinase A (Streptococcus pyogenes serotype M1, UniProt P10520).
T7 sequence (P10520 whole entry): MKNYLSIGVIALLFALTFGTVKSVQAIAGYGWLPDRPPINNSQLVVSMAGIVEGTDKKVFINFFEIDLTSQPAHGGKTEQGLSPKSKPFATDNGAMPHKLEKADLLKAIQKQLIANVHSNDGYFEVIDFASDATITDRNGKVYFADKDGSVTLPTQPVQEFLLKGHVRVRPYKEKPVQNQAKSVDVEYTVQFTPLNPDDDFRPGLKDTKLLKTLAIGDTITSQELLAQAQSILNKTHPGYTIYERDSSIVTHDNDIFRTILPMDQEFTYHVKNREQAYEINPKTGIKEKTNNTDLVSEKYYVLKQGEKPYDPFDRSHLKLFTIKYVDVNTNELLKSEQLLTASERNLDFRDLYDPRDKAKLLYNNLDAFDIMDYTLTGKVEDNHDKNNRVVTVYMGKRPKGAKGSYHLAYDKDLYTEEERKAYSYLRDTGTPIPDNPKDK
The data set is described as follows: viability-normalized secreted streptokinase activity reduction – plasminogen activation absorbance, OD405, dose response (AID 1914).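 Note: secreted streptokinase activity via plasminogen activation per viability signal from cell pellet.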 Type of data set: functional, Streptococcus pyogenes M1 GAS.

The test system of a further data set is Streptococcus. Nature of the data set: GAS UMAA2166 growth inhibition – luminescence, BacTiterGlo, counter-screen for streptokinase expression inhibitor project, dose response (AID 1915).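 Note: potency for reduction of bacterial viability or growth.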 It counts as functional, organism-based.

Sequence of Cytochrome P450 3A4 (P08684 whole entry): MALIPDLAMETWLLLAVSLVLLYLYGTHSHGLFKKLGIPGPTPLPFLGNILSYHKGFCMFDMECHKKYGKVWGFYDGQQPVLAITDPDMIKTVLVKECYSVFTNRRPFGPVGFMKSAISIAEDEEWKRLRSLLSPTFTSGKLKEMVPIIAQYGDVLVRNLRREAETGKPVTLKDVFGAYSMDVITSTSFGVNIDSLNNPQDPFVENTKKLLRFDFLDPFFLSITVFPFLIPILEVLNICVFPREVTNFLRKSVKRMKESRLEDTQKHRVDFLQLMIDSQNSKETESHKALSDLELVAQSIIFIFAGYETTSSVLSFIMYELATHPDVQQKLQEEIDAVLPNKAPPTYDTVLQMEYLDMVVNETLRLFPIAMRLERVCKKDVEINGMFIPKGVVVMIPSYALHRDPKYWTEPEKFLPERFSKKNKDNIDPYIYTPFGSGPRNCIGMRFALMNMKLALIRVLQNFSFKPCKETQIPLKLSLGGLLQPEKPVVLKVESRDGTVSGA

A word on the IC50: it is the concentration that gives 50% inhibition. Broadly, the EC50 is the midpoint of the concentration-response curve. As to `Oc1ccc(CN2CCCCC2)nc1-c1ccccc1`, the concentration for half-maximal inhibition (IC50) in [1] was 3.34 µM (active). The EC50 in data set [2] was 4.73 µM (active).
Consider `N#Cc1cc(-c2cccc(Cl)c2)cnc1O`, for which the IC50 in [1] was 2.29 µM (active).
For `CCOC(=O)N1CCN(C(=O)c2ccc3oc(CCCc4ccccc4)nc3c2)CC1`, the concentration for a half-maximal effect (EC50) is 2.2 µM (active) in the data set on H4, 436 nM (active) in data set [4] and 579 nM (active) in data set [5]. In addition, the IC50 (in data set [3]; in the data set “cells”) was > 67.5 µM (inactive) each time.
In general, AC50 refers to the midpoint of the concentration-response curve, whichever way the signal moves. Take `CCn1nc2cc(C(=O)NCC34CC5CC(CC(C5)C3)C4)ccc2c1OC`: the concentration at half-maximal activity (AC50) result on Cytochrome P450 3A4 is “inconclusive”; at Cytochrome P450 1A2 it was 12.6 µM (inconclusive). In addition, the concentration for half-maximal inhibition (IC50) in data set [1] is 1.94 µM (active).
For the molecule `Sc1nnc(-c2cc3c(s2)-c2ccccc2CC3)o1`, the IC50 on Aminopeptidase N was 67.4 µM (active). Besides, in data set [6], the AC50 was 24.9 µM (active). In addition, the 50% effective concentration (EC50) in data set [7] was 11.5 µM (active); on Streptokinase A it was > 150 µM (not active); in [2], 0.944 µM (active); with Streptococcus, 23.3 µM (inconclusive).
As for `C=C(c1ccc2[nH]c(NC(=O)OC)nc2c1)c1cccs1`, the values for the IC50 (in [3]; in “cells”) were 2.72 µM (active) and > 67.6 µM (inactive), respectively.
`NC(=O)C1CCN(C(=O)CCNS(=O)(=O)c2ccccc2F)CC1`: the IC50 in data set [1] was > 9.99 µM (inactive).
